The target of the test is T1, human EGF-R (Homo sapiens, UniProt P00533).
T1 construct: expressed in transfected cells; host or cells: F/L-HERc cells: murine IL-3-dependent FDC-P1 cells transduced with retroviral vector LXSN carrying human EGF-R cDNA (packaging line GP+E86)
In words: Inhibition of EGF-dependent proliferation of F/L-HERc cells. In kind it is cell-based. The conditions noted are these: F/L-HERc cells (murine IL-3-dependent line expressing human EGF-R), stimulated with EGF 20 ng/ml, 48 hours, Cell Titer 96 AQueous assay. An excerpt:
A cell line of murine origin dependent on interleukin-3-(IL-3) which was genetically modified to express functional human EGF-R was used here. The proliferation of these cells known as F/L-HERc can therefore be stimulated either by murine IL-3 or by EGF (cf. von Rüden, T. et al. in EMBO J. 7, 2749-2756 (1988) and Pierce, J. H. et al. in Science 239, 628-631 (1988)).
The starting material used for the F/L-HERc cells was the cell line FDC-P1, the production of which has been described by Dexter, T. M. et al. in J. Exp. Med. 152, 1036-1047 (1980). Alternatively, however, other growth-factor-dependent cells may also be used (cf. for example Pierce, J. H. et al. in Science 239, 628-631 (1988), Shibuya, H. et al. in Cell 70, 57-67 (1992) and Alexander, W. S. et al. in EMBO J. 10, 3683-3691 (1991)). […]
In order to determine the inhibitory activity of the compounds according to the invention the relative cell number was measured in O.D. units using the Cell Titer 96™ AQueous Non-Radioactive Cell Proliferation Assay (Promega). […]

The source of these data is patent publication US20020082270A1, “Aminoquinazolines which inhibit signal transduction mediated by tyrosine kinases” (priority 2000, published 2002).

Usually IC50 stands for the point on the concentration scale where inhibition reaches its midpoint. A lower IC50 goes with inhibition by little substance.

T1 sequence (P00533 25-1210): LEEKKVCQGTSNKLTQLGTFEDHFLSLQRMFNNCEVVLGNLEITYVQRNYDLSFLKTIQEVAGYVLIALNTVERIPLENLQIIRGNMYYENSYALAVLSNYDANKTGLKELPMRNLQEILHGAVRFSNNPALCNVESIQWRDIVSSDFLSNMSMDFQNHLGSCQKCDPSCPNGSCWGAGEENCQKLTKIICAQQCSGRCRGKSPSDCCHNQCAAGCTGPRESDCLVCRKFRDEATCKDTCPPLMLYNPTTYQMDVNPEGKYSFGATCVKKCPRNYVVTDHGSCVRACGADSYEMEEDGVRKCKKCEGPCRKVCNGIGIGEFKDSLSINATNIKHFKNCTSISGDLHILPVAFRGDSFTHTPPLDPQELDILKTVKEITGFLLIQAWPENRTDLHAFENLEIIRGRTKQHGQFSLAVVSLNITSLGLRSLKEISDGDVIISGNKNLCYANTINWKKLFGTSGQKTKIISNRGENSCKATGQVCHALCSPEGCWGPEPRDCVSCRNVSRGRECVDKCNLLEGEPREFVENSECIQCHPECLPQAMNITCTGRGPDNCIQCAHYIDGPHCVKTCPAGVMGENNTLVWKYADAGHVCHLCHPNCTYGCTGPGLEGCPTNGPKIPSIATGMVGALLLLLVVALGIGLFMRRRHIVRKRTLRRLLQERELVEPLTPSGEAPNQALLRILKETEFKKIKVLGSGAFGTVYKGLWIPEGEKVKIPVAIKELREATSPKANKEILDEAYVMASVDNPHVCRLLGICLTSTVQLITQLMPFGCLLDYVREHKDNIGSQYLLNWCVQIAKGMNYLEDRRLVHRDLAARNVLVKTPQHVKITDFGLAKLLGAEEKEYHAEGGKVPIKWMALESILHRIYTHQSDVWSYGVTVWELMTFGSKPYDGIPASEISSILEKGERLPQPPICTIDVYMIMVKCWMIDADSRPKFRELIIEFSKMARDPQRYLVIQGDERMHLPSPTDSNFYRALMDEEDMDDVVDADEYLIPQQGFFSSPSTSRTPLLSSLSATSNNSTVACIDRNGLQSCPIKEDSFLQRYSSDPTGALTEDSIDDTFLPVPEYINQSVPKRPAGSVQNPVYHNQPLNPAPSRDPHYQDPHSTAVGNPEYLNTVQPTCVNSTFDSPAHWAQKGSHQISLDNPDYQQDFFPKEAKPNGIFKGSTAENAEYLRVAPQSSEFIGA

For the compound `C=CC(=O)Nc1cc2c(N[C@H](C)c3ccccc3)ncnc2cc1OCCN1CCN(C2COC(=O)C2)CC1` (stereo partly drawn) [1 (2), 4-[(R)-(1-phenylethyl)amino]-7-{2-[4-(2-oxo-tetrahydrofuran-4-yl)-piperazin-1-yl]-ethoxy}-6-[(vinylcarbonyl)amino]-quinazoline], the IC50 was 12 nM.
